Laboratory results as given in PubChem BioAssay AID330 (DTP/NCI, 2004).
Toxic doses and inconclusive results are not listed.

System: P388 leukemia ip, CD2F1 mice, survival T/C
Assay: NCI In Vivo Anticancer Drug Screen. Data for tumor model P388 Leukemia (intraperitoneal) in CD2F1 (CDF1) mice
Conditions: endpoint: median survival time, higher = longer survival
Method in brief: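 Mice carrying the transplanted tumor received test compound or vehicle. Survival was recorded in each group, and the value is the treated-group measurement divided by that of the vehicle-treated control group.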

[1] = dose: 50.0 mg/kg/injection, schedule: Q01DX005 (ip), vehicle: Klucel (hydroxypropylcellulose) (HPC)
[2] = dose: 100.0 mg/kg/injection, schedule: Q01DX005 (ip), vehicle: Klucel (hydroxypropylcellulose) (HPC)
[3] = dose: 200.0 mg/kg/injection, schedule: Q01DX005 (ip), vehicle: Klucel (hydroxypropylcellulose) (HPC)
[4] = dose: 50.0 mg/kg/injection, schedule: Q01DX005 (ip), vehicle: saline with Tween-80
[5] = dose: 100.0 mg/kg/injection, schedule: Q01DX005 (ip), vehicle: saline with Tween-80
[6] = dose: 25.0 mg/kg/injection, schedule: Q01DX005 (ip), vehicle: saline with Tween-80
[7] = dose: 50.0 mg/kg/injection, schedule: Q01DX009 (ip), vehicle: saline
[8] = dose: 100.0 mg/kg/injection, schedule: Q01DX009 (ip), vehicle: saline

O=S1(=O)CC(N2CCOCC2)C2=C(O1)c1ccccc1OCC2 (stereo not drawn)
T/C [1]: 98 % of control
T/C [2]: 97 % of control
T/C [3]: 88 % of control

C=CCOc1cc2c(cc1C(C)c1ccc(OC)c(C)c1)OCO2 (stereo not drawn)
T/C [4]: 100 % of control
T/C [5]: 95 % of control
T/C (dose: 200.0 mg/kg/injection, schedule: Q01DX005 (ip), vehicle: saline with Tween-80): 120 % of control

CCCN(CCC)CC(C)(C)C(O)c1ccc(OC)c2ccccc12 (stereo not drawn)
T/C [6]: 110 % of control
T/C [4]: 108 % of control

Cc1cc2c(=O)cc(-c3ccccc3Cl)oc2c(C#N)c1C
T/C (dose: 1.87 mg/kg/injection, schedule: Q01DX005 (ip), vehicle: Klucel (hydroxypropylcellulose) (HPC)): 95 % of control
T/C (dose: 3.75 mg/kg/injection, schedule: Q01DX005 (ip), vehicle: Klucel (hydroxypropylcellulose) (HPC)): 101 % of control
T/C (dose: 7.5 mg/kg/injection, schedule: Q01DX005 (ip), vehicle: Klucel (hydroxypropylcellulose) (HPC)): 117 % of control
T/C (dose: 60.0 mg/kg/injection, schedule: Q01DX005 (ip), vehicle: Klucel (hydroxypropylcellulose) (HPC)): 86 % of control
T/C (dose: 240.0 mg/kg/injection, schedule: Q01DX005 (ip), vehicle: Klucel (hydroxypropylcellulose) (HPC)): 95 % of control

CN1C(=O)C23CCCN2C(=O)C1(C)SC(=O)S3 (stereo not drawn)
T/C [7]: 98 % of control
T/C [8]: 101 % of control
T/C (dose: 200.0 mg/kg/injection, schedule: Q01DX009 (ip), vehicle: saline): 98 % of control

COc1cc2c(c(OC)c1OC)-c1ccc(OC)c(=O)cc1[C@@H](NC(=O)CF)CC2
T/C (dose: 23.4 micrograms/kg/injection, schedule: Q01DX009 (ip), vehicle: saline): 121 % of control
T/C (dose: 93.7 micrograms/kg/injection, schedule: Q01DX009 (ip), vehicle: saline): 152 % of control
T/C (dose: 187.5 micrograms/kg/injection, schedule: Q01DX009 (ip), vehicle: saline): 152 % of control
T/C (dose: 250.0 micrograms/kg/injection, schedule: Q04DX003 (ip), vehicle: saline): 163 % of control
T/C (dose: 375.0 micrograms/kg/injection, schedule: Q01DX009 (ip), vehicle: saline): 161 % of control
T/C (dose: 500.0 micrograms/kg/injection, schedule: Q04DX003 (ip), vehicle: saline): 204 % of control
T/C (dose: 2000.0 micrograms/kg/injection, schedule: Q04DX003 (ip), vehicle: saline): 122 % of control

CC(=O)Nc1cc(C(=O)O)cc(C(=O)O)c1
T/C (dose: 50.0 mg/kg/injection, schedule: Q01DX009 (ip), vehicle: saline with Tween-80): 109 % of control
T/C (dose: 100.0 mg/kg/injection, schedule: Q01DX009 (ip), vehicle: saline with Tween-80): 105 % of control
T/C (dose: 200.0 mg/kg/injection, schedule: Q01DX009 (ip), vehicle: saline with Tween-80): 92 % of control

c1ccc(Nc2nnnn2-c2ccccc2)cc1
T/C [6]: 100 % of control
T/C [4]: 100 % of control
T/C [5]: 104 % of control

COC(=O)C1(CC(=O)c2ccco2)NC(=S)NC(=O)C1C#N (stereo not drawn)
T/C (dose: 60.0 mg/kg/injection, schedule: Q01DX005 (ip), vehicle: saline with Tween-80): 98 % of control
T/C (dose: 120.0 mg/kg/injection, schedule: Q01DX005 (ip), vehicle: saline with Tween-80): 94 % of control
T/C (dose: 240.0 mg/kg/injection, schedule: Q01DX005 (ip), vehicle: saline with Tween-80): 93 % of control

C=C(NC(C)=O)C(=O)CCC(N)=O
T/C (dose: 5.0 mg/kg/injection, schedule: Q01DX009 (ip), vehicle: saline sonified): 109 % of control
T/C (dose: 10.0 mg/kg/injection, schedule: Q01DX009 (ip), vehicle: saline sonified): 109 % of control
T/C (dose: 20.0 mg/kg/injection, schedule: Q01DX009 (ip), vehicle: saline sonified): 104 % of control

OCC[N-]CC[N-]CCO.[Cl][Co][Cl]
T/C (dose: 6.25 mg/kg/injection, schedule: Q01DX009 (ip), vehicle: saline): 103 % of control
T/C (dose: 12.5 mg/kg/injection, schedule: Q01DX009 (ip), vehicle: saline): 120 % of control
T/C (dose: 25.0 mg/kg/injection, schedule: Q01DX009 (ip), vehicle: saline): 120 % of control
T/C [7]: 122 % of control
T/C [8]: 92 % of control

COc1ccc2c(c1)N(S(=O)(=O)c1ccc(C)cc1)C/C(=C\N1CCN(C)CC1)C2=O
T/C [1]: 97 % of control
T/C [2]: 108 % of control
T/C [3]: 101 % of control
